Columns and labels:
[1] = biological target: BRAF-MEK1 complex (Homo sapiens, UniProt Q02750); conditions: HCT116 cells, 200 nM, 1 hour
[2] = tested on: KRAS-G12S A549 cells; test: Long-term clonogenic assay; assay type: cell-based, human; conditions: 10 nM final concentration, in comparison to amide-linker compounds (eg. 1, 3)
Method: Cells were plated at a density of 6,000 cells per well in 6-well plates in 3 mL of culture medium. Twenty-four hours after seeding, compounds dissolved in DMSO or DMSO-only vehicles were added directly to the culture media at a 1:1000 dilution. Following 10 days of culture, cells were washed 2x in PBS, fixed in ice-cold methanol for 10 minutes, stained with crystal-violet at room temperature for 10 minutes, and subsequently washed three times in water. Plates were allowed to dry overnight before imagining with an Epson V600 scanner.

[3] = biological target: T1, mouse KSR1-luc (KSR-bound MEK) (UniProt Q02750+Q61097); test: NanoBRET in-cell steady-state competition with tram-bo on KSR1-luc; assay type: cell-based
T1 construct: expressed in transfected cells; host or cells: HEK293T

[4] = tested on: HCT116 cells; test: Cell proliferation/viability assay under low-adherence conditions; assay type: cell-based, human
Method: A375, A549, HCT116, and SKMEL-239 cells were plated in Corning Costar Ultra-Low Attachment 96-well plates (Reference number 3434). After 24 hours of incubation at 37° C., cells were treated with inhibitors (0.1% DMSO in final volume). Cells were grown for five days, and resazurin sodium salt was added at a final concentration of 0.01 µg/µL. Fluorescence was measured using a Molecular Devices SpectraMax M5 spectrophotometer after a 4-24-hour incubation with resazurin solution. Technical triplicate values were averaged for each experiment, and biological replicate values are represented as average +/- standard deviation. For each cell line, logEC50 values of inhibitors were statistically compared using the extra sum-of-squares F test in GraphPad Prism 8 (FIGS. 57, 58, 67, 68, 69).

[5] = tested on: MEK1 and MEK2 (kinase panel incl. BRAF, CRAF); test: In vitro kinase profiling, direct binding assays; conditions: 1 µM
[6] = tested on: MEK1, MEK2 and upstream kinases BRAF, CRAF; test: In vitro kinase profiling, substrate phosphorylation assays; assay type: biochemical; conditions: incl. BRAF and CRAF phosphorylation of MEK1 as substrate
[7] = tested on: phosphorylated ERK1/2 (T202/Y204); test: Immunoblot of RAS/ERK pathway inhibition; assay type: cell-based, human; conditions: 1 hour, increasing concentrations, relative to trametinib
Method: Cells were plated at a density of 300,000 cells per well in 6-well plates in 2 mL of culture medium. 24 hours after seeding, cells were treated with compounds or DMSO at a 1:1000 dilution (0.1 % DMSO in final volume). […] Samples were normalized to a protein content of 5 µg/µL in 100 µL total volume, and 20 µL of 6x SDS was added. […] Transfers were confirmed using ponceau red, washed, and then blocked for 1 hour with 5% BSA TBS-T, prior to overnight incubation with primary antibodies including phospho-ERK1/2 T202/Y204 and total ERK1/2 (Cell Signaling Technologies (CST) 9101S and 4695S, respectively) in 5% BSA TBS-T. The next day, blots were washed extensively, and incubated in secondary antibody (Anti-Rabbit IgG HRP-Linked CST 7074S).

[8] = biological target: T2, MEK-NL (Homo sapiens, UniProt Q02750); test: Tracer buildup curves on MEK-NLuc (NanoBRET); assay type: cell-based; conditions: HEK293T cells, 2 hrs at 37° C.; read-out: binding affinity to MEK-NL (tracer buildup curves)
T2 construct: expressed in transfected cells; host or cells: HEK293T
Method: (v) Tram-bo and PD-bo buildup curves measure on MEK-NLuc. A human C-terminal NanoLuc fusion of MEK was transfected as mentioned above at a concentration of […] in combination with […] of carrier DNA. […] A 20x solution was added to each well to give final concentrations of 2, 1, 0.5, 0.1, 0.05, 0.01, 0.001, 0.0001 mM for PD-bo, and 1, 0.1, 0.05, 0.01, 0.005, 0.001, 0.0001, 0.00001 for Tram-bo. […] All data were analyzed using Prism 8 (GraphPad)

[9] = tested on: luciferase-tagged human KSR1, KSR2, ARAF, BRAF, and CRAF/RAF1; test: RAF family tram-bo buildup curves (NanoBRET); assay type: cell-based; conditions: BRET buildup curves with increasing tracer concentrations
Method: Human c-terminal NanoLuc fusions versions of ARAF (Uniprot P10398), BRAF (UniProt P15056), CRAF (Uniprot P04049), KSR1 (Uniprot Q8IVT5), and KSR2 (Uniprot Q6VAB6) were transfected as mentioned above at a concentration of 0.1 µg/mL in combination with 9.9 µg/mL of carrier DNA. All RAF constructs from Promega. […] A 20x tram-bo solution was added to each well to give final concentrations of 4, 1, 0.5, 0.1, 0.05, 0.01, 0.001, 0.0001 µM. […] All data were analyzed using Prism 8 (GraphPad).

[10] = biological target: KSR1-MEK1 complex (UniProt Q02750+Q61097, P775N); conditions: HCT116 cells, 200 nM, 1 hour
[11] = biological target: MEK1-luc (Homo sapiens, UniProt Q02750); test: NanoBRET washout / intracellular residence time on MEK1-luc; conditions: cells pre-treated with MEKi, washed, 1 µM tram-bo added
[12] = HCT116, low-adherence conditions

With `CNS(=O)(=O)Nc1nccc(Cc2c(C)c3ccc(Oc4ncccn4)cc3oc2=O)c1F` [CH5126766, reference compound] the “effect on BRAF pulled down via endogenous MEK1 (co-IP)” value [1] was “enhances interactions between endogenous BRAF and MEK1”.

For `Cc1c(=O)n(C)c(Nc2ccc(I)cc2F)c2c(=O)n(C3CC3)c(=O)n(-c3cccc(NS(=O)(=O)NC4CC4)c3)c12` [compound 5], the “growth inhibition in long-term clonogenic assay” value (“growth inhibition” for short) [2] was “enhanced and durable growth inhibition”.

For `CCN(C)S(=O)(=O)Nc1cccc(-n2c(=O)n(C3CC3)c(=O)c3c(Nc4ccc(I)cc4F)n(C)c(=O)c(C)c32)c1` [compound 6], the “growth inhibition” value [2] was “enhanced and durable growth inhibition”.

With `CNS(=O)(=O)Nc1cccc(-n2c(=O)n(C3CC3)c(=O)c3c(Nc4ccc(I)cc4F)n(C)c(=O)c(C)c32)c1` [trametiglue] the “potency and off-rate kinetics in cellular target engagement assays” value ([3]; KSR-luc or MEK-luc reporters, residence time at 6.25 nM) was “retained similar potency and off-rate kinetics as trametinib”, the “improvement in potency relative to CH5126766” value [4, 12] was about 200 fold and the “improvement in potency relative to trametinib” value [4, 12] was “approximately 7 fold”. The IC50 ([4]; low-adherence conditions, five days, resazurin, read-out: IC50 in the cell line HCT116) was 0.07 ± 0.04 nM, the “direct interaction with isolated BRAF or CRAF in binding experiments” value [5] was “no direct interactions towards isolated BRAF or CRAF” and the “selectivity in direct binding assays” value [5] was “strong selectivity towards MEK1 and MEK2”. The “inhibition in substrate phosphorylation assays” value [6] was “not only inhibited MEK1 and MEK2, but also upstream kinases”, the “growth inhibition” value [2] was “enhanced and durable growth inhibition” and the “inhibition of RAS-MAPK signaling as measured by pERK” value [7] was “higher potency inhibitor of RAS-MAPK signaling”. The “effect on BRAF pulled down via endogenous MEK1 (co-IP)” value [1] was “markedly enhanced capture of BRAF”.

In the case of `Cc1c(=O)n(C)c(Nc2ccc(I)cc2F)c2c(=O)n(C3CC3)c(=O)n(-c3cccc(NC(=O)CCOCCOCCNC(=O)CCC4=[N+]5C(=Cc6ccc(-c7ccc[nH]7)n6[B-]5(F)F)C=C4)c3)c12` [Tram-bo], the EC50 [8] is reported as 4.7 nM and the “tighter binding on KSR1-luc and KSR2-luc relative to ARAF-luc, BRAF-luc, and CRAF-luc” value [9] is reported as ~ 10 fold.

For `O=C(c1ccc(F)c(F)c1Nc1ccc(I)cc1F)N1CC(O)([C@@H]2CCCCN2)C1` [cobimetinib], the IC50 ([3]; HEK293T cells, 1 µM tram-bo tracer, equilibrium binding, mean ± s.e.m., read-out: steady-state IC50 against KSR1-luc) was 5.1 ± 0.7 nM, the “difference in potency between KSR1-luc and MEK1-luc” value ([3]; IC50 MEK1-luc vs KSR1-luc) was about 20 fold and the “effect on complex stability of K1 (KSR1 P775N) and B2 (BRAF R662A) mutants with MEK (co-IP)” value [10] was “did not alter complex stability”. The “dissociation kinetics after washout on MEK1-luc” value [11] was “dissociated more readily”.
